Here are results for two compounds from patent publication US20070265165A1, “NOVEL HERBICIDES” (Syngenta Crop Protection, Inc., priority 1998, published 2007).

The structures appear in SMILES notation.

Type in all cases: in vivo
In experiment [1] the test system is Solanig. The experiment is described as follows: Post-emergent herbicidal action. As to conditions: 2000 g AS/ha sprayed in the 4- to 6-leaf stage; evaluated about 18 days later; rating scale 1-9 (1=total damage, 9=no action). From the text:
(§1) In a greenhouse, monocot and dicot test plants are sown in standard soil in plastic pots and sprayed in the 4- to 6-leaf stage with an aqueous suspension of the test compounds of formula I prepared from a 25% wettable powder [Example F3, b) of WO 97/34485] or with an emulsion of the test compound of formula I prepared from a 25% emulsifiable concentrate [Example F1 c) of WO 97/34485] at a concentration of 2 kg active substance/ha (500 l of water/ha). The test plants are then further cultivated in the greenhouse under optimum conditions. The test is evaluated about 18 days later on a rating scale of 1-9 (1=total damage, 9=no action). Ratings of 1 to 4 (especially of 1 to 3) denote good to very good herbicidal action.

The subject of experiment [2] is Setaria. The experiment is described as follows: Post-emergent herbicidal action. As to conditions: 2000 g AS/ha sprayed in the 4- to 6-leaf stage; evaluated about 18 days later; rating scale 1-9 (1=total damage, 9=no action).
Description: as §1

Experiment [3] deals with Stellaria. The experiment is described as follows: Post-emergent herbicidal action. The following applies: 2000 g AS/ha sprayed in the 4- to 6-leaf stage; evaluated about 18 days later; rating scale 1-9 (1=total damage, 9=no action).
Description: as §1

Experiment [4] relates to Cyperus. In words: Post-emergent herbicidal action. The following applies: 2000 g AS/ha sprayed in the 4- to 6-leaf stage; evaluated about 18 days later; rating scale 1-9 (1=total damage, 9=no action).
Description: as §1

The test system of experiment [5] is Sinapsis. The experiment is described as follows: Post-emergent herbicidal action. As to conditions: 2000 g AS/ha sprayed in the 4- to 6-leaf stage; evaluated about 18 days later; rating scale 1-9 (1=total damage, 9=no action).
Description: as §1

In experiment [6] the test system is Solanig. The experiment is described as follows: Pre-emergent herbicidal action. As to conditions: 2000 g AS/ha sprayed immediately after sowing; evaluated 3 weeks later; rating scale 1-9 (1=total damage, 9=no action). An excerpt: (§2) Monocot and dicot test plants are sown in standard soil in plastic pots. Immediately after sowing, the plants are sprayed at a concentration of 2 kg active substance/ha with an aqueous suspension of the test compound [prepared from a 25% wettable powder (Example F3, b) in accordance with WO 97/34485] or an emulsion of the test compound [prepared from a 25% emulsifiable concentrate (Example Fl c)] (500 l of water/ha). The test plants are then cultivated in the greenhouse under optimum conditions. The test is evaluated 3 weeks later on a rating scale of 1-9 (1=total damage, 9=no action). Ratings of 1 to 4 (especially of 1 to 3) denote good to very good herbicidal action.

Experiment [7] concerns Setaria. In words: Pre-emergent herbicidal action. As to conditions: 2000 g AS/ha sprayed immediately after sowing; evaluated 3 weeks later; rating scale 1-9 (1=total damage, 9=no action).
Description: as §2

Experiment [8] has as its system Stellaria. The experiment is described as follows: Pre-emergent herbicidal action. The following applies: 2000 g AS/ha sprayed immediately after sowing; evaluated 3 weeks later; rating scale 1-9 (1=total damage, 9=no action).
Description: as §2

The test system of experiment [9] is Cyperus. In words: Pre-emergent herbicidal action. The following applies: 2000 g AS/ha sprayed immediately after sowing; evaluated 3 weeks later; rating scale 1-9 (1=total damage, 9=no action).
Description: as §2

The test system of experiment [10] is Sinapsis. The experiment is described as follows: Pre-emergent herbicidal action. The following applies: 2000 g AS/ha sprayed immediately after sowing; evaluated 3 weeks later; rating scale 1-9 (1=total damage, 9=no action).
Description: as §2

In the case of `COCc1c(S(C)(=O)=O)ccc(C(=O)C2=C(O)C3CCC(C3)C2=O)c1C` (centres unmarked) [1,001, 4-hydroxy-3-(4-methylsulphonyl-3-methoxymethyl-2-methyl-benzoyl)-bicyclo[3.2.1]oct-3-en-2-one], in the experiment with Solanig [1], the “Post-emergent action, test plant Solanig, rating” value stood at 2. Also, the “Post-emergent action, test plant Setaria, rating” value with Setaria [2] is 2. Also, the “Post-emergent action, test plant Stellaria, rating” value in the experiment with Stellaria [3] is recorded as 2. For the same compound, in the experiment on Cyperus [4], the “Post-emergent action, test plant Cyperus, rating” value was 3. Moreover, the “Post-emergent action, test plant Sinapsis, rating” value with Sinapsis [5] is recorded as 2. Moreover, in the experiment with Solanig [6], the “Pre-emergent action, test plant Solanig, rating” value was 2. Further, the “Pre-emergent action, test plant Setaria, rating” value in the experiment with Setaria [7] came out at 3. Further, the “Pre-emergent action, test plant Stellaria, rating” value in the experiment with Stellaria [8] turned out to be 2. The “Pre-emergent action, test plant Cyperus, rating” value with Cyperus [9] was 3. In addition, in the experiment on Sinapsis [10], the “Pre-emergent action, test plant Sinapsis, rating” value is 3.
As to `COCc1c(S(C)(=O)=O)ccc(C(=O)C2=C(O)C(C)(C)ON(C)C2=O)c1C` [2,001, 5-hydroxy-4-(4-methylsulphonyl-3-methoxymethyl-2-methyl-benzoyl)-2,6,6-trimethyl-6.H.-[1,2]oxazin-3-one], in the experiment with Solanig [1], the “Post-emergent action, test plant Solanig, rating” value is 2. Moreover, the “Post-emergent action, test plant Setaria, rating” value in the experiment with Setaria [2] came out at 3. For the same compound, the “Post-emergent action, test plant Stellaria, rating” value in the experiment on Stellaria [3] is 4. Moreover, the “Post-emergent action, test plant Cyperus, rating” value with Cyperus [4] is 3. For the same compound, the “Post-emergent action, test plant Sinapsis, rating” value with Sinapsis [5] is 2. In the experiment on Solanig [6], the “Pre-emergent action, test plant Solanig, rating” value amounted to 2. The “Pre-emergent action, test plant Setaria, rating” value in the experiment with Setaria [7] was found to be 3. For the same compound, the “Pre-emergent action, test plant Stellaria, rating” value with Stellaria [8] stood at 2. In the experiment with Cyperus [9], the “Pre-emergent action, test plant Cyperus, rating” value was 3. Also, the “Pre-emergent action, test plant Sinapsis, rating” value with Sinapsis [10] stood at 2.
